Experimental data reported in ChEMBL document CHEMBL1154270, “Light-independent metabolomics of endophytic Thielavia subthermophila provides insight into microbial hypericin biosynthesis” (J Nat Prod, 2009).
Calls of active or inactive are those of the source. No cut-off for these calls is given here.

Experiments:
[1] = system: THP-1; test: Cytotoxicity against human THP1 cells after 48 hrs assessed morphological changes compound exposed to light for 20 mins before treatment; assay type: functional, cell-based
[2] = system: THP-1; test: Cytotoxicity against human THP1 cells after 48 hrs assessed as morphological changes in the dark condition; assay type: functional, cell-based

In the case of `Cc1cc(O)c2c(c1)C(=O)c1cc(O)cc(O)c1C2=O`, the Activity [1] is reported as “Active” and the Activity [2] is reported as “Active”.
`Cc1cc(O)c2c(=O)c3c(O)cc(O)c4c5c(O)cc(O)c6c(=O)c7c(O)cc(C)cc7c(c65)c(c2c1)c34` was tested, and the Activity [1] was “Active” and the Activity [2] was “Active”.
For `Cc1cc(O)c2c(=O)c3c(O)cc(O)c4c5c(O)cc(O)c6c(=O)c7c(O)cc(C)c8c1c2c(c34)c(c78)c65`, the Activity [1] was “Active” and the Activity [2] was “Active”.
In the case of `Cc1cc(O)c2c(c1)Cc1cc(O)cc(O)c1C2=O`, the Activity [1] is reported as “Active” and the Activity [2] is reported as “Active”.
